Data: PMC11597774, “Investigation of Antimicrobial and Anti-Inflammatory Efficacy of Newly Synthesized Pyrogallol-Coumarin Hybrids: In Vitro and In Silico Studies” (Pharmaceutics, 2024)
≈ marks a conversion by molar mass, not a printed value. One block for each compound: values may come before it.

Tests used:
[1] = target: T1, Soybean lipoxygenase (Type I-B) (Glycine max, UniProt P08170); assay: In vitro LOX inhibition assay; format: biochemical; details: for inhibition at 25 µM / inhibition at 50 µM / inhibition at 100 µM: read-out: Anti-LOX Activity (%); for IC50: sodium linoleate substrate, tris buffer pH 9, read-out: IC50 (µM), in vitro lipoxygenase inhibitory activity
T1 construct: purchased Merck (KGaA, Darmstadt, Germany)
T1 sequence (P08170 1-839): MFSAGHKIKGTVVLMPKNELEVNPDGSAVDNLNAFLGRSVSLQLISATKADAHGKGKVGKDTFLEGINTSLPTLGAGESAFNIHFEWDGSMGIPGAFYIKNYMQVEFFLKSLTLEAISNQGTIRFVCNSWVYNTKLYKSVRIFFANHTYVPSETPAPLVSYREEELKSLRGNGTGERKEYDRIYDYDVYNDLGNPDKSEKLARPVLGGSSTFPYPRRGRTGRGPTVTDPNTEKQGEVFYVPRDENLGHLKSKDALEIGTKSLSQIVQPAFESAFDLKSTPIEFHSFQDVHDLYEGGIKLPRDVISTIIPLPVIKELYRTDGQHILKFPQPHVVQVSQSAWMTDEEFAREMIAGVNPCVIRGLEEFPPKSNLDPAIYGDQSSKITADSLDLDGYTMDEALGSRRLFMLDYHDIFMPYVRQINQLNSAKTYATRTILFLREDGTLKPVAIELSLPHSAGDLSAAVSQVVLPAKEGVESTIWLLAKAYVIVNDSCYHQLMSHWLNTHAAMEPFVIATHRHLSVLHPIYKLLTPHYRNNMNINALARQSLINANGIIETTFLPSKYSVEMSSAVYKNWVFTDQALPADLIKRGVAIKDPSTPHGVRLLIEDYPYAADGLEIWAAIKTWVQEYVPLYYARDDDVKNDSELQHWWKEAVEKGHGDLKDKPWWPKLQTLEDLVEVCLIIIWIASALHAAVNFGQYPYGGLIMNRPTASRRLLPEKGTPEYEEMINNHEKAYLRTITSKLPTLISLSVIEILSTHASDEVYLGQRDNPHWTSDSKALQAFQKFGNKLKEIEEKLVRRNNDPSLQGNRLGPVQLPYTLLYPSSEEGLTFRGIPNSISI
Excerpt: Soybean lipoxygenase (Type I-B) is a very often used enzyme for the investigation of anti-inflammatory properties of compounds [38]. The LOX inhibition assay measures the rate of oxidation of linoleic acid by lipoxygenase, which results in the formation of a colorless product that can be detected spectrophotometrically. This enzyme catalyzes the conversion of linoleic acid into hydroperoxy fatty acids and results in increased absorbance at 234 nm. The tested compounds dissolved in DMSO were incubated at room temperature with sodium linoleate (3 mM in tris buffer pH = 9) and enzyme solution (5 × 10^3 units/mL in saline). The activity for each tested compound was presented as IC50 value ± standard deviation (SD) of three independent measurements.

C. albicans ATCC 10231 = assay: Microdilution MIC/MMC with resazurin; format: cell-based, Candida albicans
Description: (§1) The antimicrobial activity of PCH-1 and PCH-2 was tested against 13 microorganisms. The experiment included four standard strains, Staphylococcus aureus ATCC 6538, Bacillus subtilis ATCC 6633, Proteus mirabilis ATCC 12453, and Pseudomonas aeruginosa ATCC 27853; five isolates, Staphylococcus aureus, Escherichia coli, Salmonella enterica, Klebsiella pneumoniae, and Bacillus subtilis; and one probiotic strain Lactobacillus plantarum 299V. Additionally, three fungal strains were tested, including one standard strain, Candida albicans ATCC 10231, and two isolates, Saccharomyces cerevisiae and probiotic strain Saccharomyces boulardii.
(§2) The bacterial suspensions were prepared using the direct colony method. The turbidity of the initial suspension was adjusted using a densitometer (DEN-1, BioSan, Latvia). When adjusted to the turbidity of the 0.5 McFarland standard, the bacterial suspension contains approximately 10^8 colony-forming units (CFU)/mL, and the yeast suspension contains approximately 10^6 CFU/mL. For the experiment, the initial suspension was further diluted at a 1:100 ratio in a sterile 0.85% saline solution.
(§3) The antimicrobial activity was assessed by determining the minimum inhibitory concentrations (MICs) and minimum microbicidal concentrations (MMCs) using the microdilution plate method with resazurin (Alfa Aesar GmbH & Co. (KG, Karlsruhe, Germany)). For this, 96-well plates were prepared by adding 100 μL of Mueller Hinton broth (Torlak, Belgrade, Serbia) for bacterial tests and Sabouraud broth (Torlak, Belgrade, Serbia) for yeast into each well. The tested PCH-1 and PCH-2 were dissolved in 10% dimethyl sulfoxide (DMSO) and then diluted into sterile distilled water. A 100 μL sample from the stock solution of the tested compound was then added to the first row of the plate, followed by twofold serial dilutions using a multichannel pipette. This produced a concentration range from 2.69 to 0.0025 µmol/L. The method is described in detail in the reported paper.
(§4) Each test setup included growth control and sterility control. […] Minimum microbicidal concentrations (MMCs) were determined as described in detail in the reported paper.

S. cerevisiae = assay: Microdilution MIC/MMC with resazurin; format: cell-based, Saccharomyces cerevisiae
Description: as §1, §2, §3, §4

S. boulardii = assay: Microdilution MIC/MMC with resazurin; format: cell-based, Saccharomyces boulardii
Description: as §1, §2, §3, §4

B. subtilis (isolate) = assay: Microdilution MIC/MMC with resazurin; format: cell-based, Bacillus subtilis
Description: as §1, §2, §3, §4

B. subtilis ATCC 6633 = assay: Microdilution MIC/MMC with resazurin; format: cell-based, Bacillus subtilis
Description: as §1, §2, §3, §4

S. aureus ATCC 25923 [2] = assay: Microdilution MIC/MMC with resazurin; format: cell-based, Staphylococcus aureus
S. aureus (isolate) = assay: Microdilution MIC/MMC with resazurin; format: cell-based, Staphylococcus aureus
Description: as §1, §2, §3, §4

L. plantarum 299V = assay: Microdilution MIC/MMC with resazurin; format: cell-based, Lactobacillus plantarum
Description: as §1, §2, §3, §4

K. pneumoniae = assay: Microdilution MIC/MMC with resazurin; format: cell-based, Klebsiella pneumoniae
Description: as §1, §2, §3, §4

P. mirabilis ATCC 12453 [3] = assay: Microdilution MIC/MMC with resazurin; format: cell-based, Proteus mirabilis
Description: as §1, §2, §3, §4

P. aeruginosa ATCC 27853 [4] = assay: Microdilution MIC/MMC with resazurin; format: cell-based, Pseudomonas aeruginosa
Description: as §1, §2, §3, §4

E. coli = assay: Microdilution MIC/MMC with resazurin; format: cell-based, Escherichia coli
Description: as §1, §2, §3, §4

S. enterica = assay: Microdilution MIC/MMC with resazurin; format: cell-based, Salmonella enterica; details: S. enterica
Description: as §1, §2, §3, §4

S. aureus ATCC 25923 [5] = assay: Inhibition of biofilm formation (crystal violet); format: cell-based, Staphylococcus aureus
P. mirabilis ATCC 12453 [6] = assay: Inhibition of biofilm formation (crystal violet); format: cell-based, Proteus mirabilis
Description: (§5) The ability of S. aureus ATCC 6538, P. mirabilis ATCC 12453, and P. aeruginosa ATCC 27853 to form biofilms was assayed as described by O’Toole et al. (2000), with some modifications. Briefly, tissue culture 96-well microtiter plates (Sarstedt, Germany) were prepared by dispensing 100 µL of nutrient broth (i.e., Mueller Hinton broth) into each well. Then, 10 µL of spore suspension (1.0 McFarland for Gram-positive bacteria and 0.5 McFarland for Gram-negative bacteria) was added to each row. To encourage biofilm formation, all plates were incubated at 37 °C for 48 h, after which the content of each well was emptied and washed twice with 200 µL of sterile 0.85% saline to remove non-adherent cells. The biofilms formed were fixed by adding 100 µL of methanol until it evaporated completely, then stained with 0.1% (w/v) crystal violet (Fluka AG, Buchs, Switzerland) and left at room temperature for 20 min. The excess stain was washed away with deionized water, followed by […] of 96% ethanol. The optical densities (ODs) of the stained biofilms were measured with an ELISA plate reader (RT-2100C, Rayto, Shenzhen, China) at 630 nm. Control wells containing only broth were included to verify sterility and prevent nonspecific media binding. To account for background absorbance, OD readings from sterile medium, fixative, and dye were averaged and subtracted from all test measurements. All tests were conducted in duplicate. The tissue culture 96-well microtiter plates (Sarstedt, Germany) were prepared by dispensing 100 µL of nutrient broth (i.e., Mueller Hinton broth) into each well. From the stock solutions of tested PCH-1 and PCH-2 (at a concentration of 5.4 µmol/L), 100 µL was added to the first row of the microtiter plate. Twofold serial dilutions were then performed, followed by the addition of 10 µL of bacterial suspension to each well. The turbidity of the bacterial suspension was 0.5 McFarland for Gram-negative bacteria and 1.0 McFarland for Gram-positive bacteria. The microtiter plates prepared in this way were incubated at 37 °C for 48 h. The remaining steps of the experiment were carried out as outlined below. […] Only broth or broth with tested PCH-1 and PCH-2 served as controls to check sterility and nonspecific binding of media. To compensate for background absorbance, OD readings from sterile medium, extracts, fixative, and dye were averaged and subtracted from all test values. All tests were performed in duplicate.

P. aeruginosa ATCC 27853 [7] = assay: Inhibition of biofilm formation (crystal violet); format: cell-based, Pseudomonas aeruginosa
Description: as §5

SMILES: CC(=O)c1c(O)c2ccccc2oc1=O [3AcHyC, 3-acetyl-4-hydroxycoumarin]
inhibition at 25 µM [1]: 26.4 ± 1.3% | inhibition at 40 µM [1]: 35.8 ± 0.8% | inhibition at 50 µM [1]: 43.5 ± 3.1% | inhibition at 75 µM [1]: 63.4 ± 0.4% | inhibition at 100 µM [1]: 81.2 ± 0.2% | IC50 [1]: 57.9 ± 1.6 µM

SMILES: OC(Cn1cncn1)(Cn1cncn1)c1ccc(F)cc1F [Fluconazole, fluconazole, reference compound]
MMC (C. albicans ATCC 10231): 0.2 mM | MIC (C. albicans ATCC 10231; Candida albicans, ATCC10231): 100 µM (≈ 30.6 µg/mL) | MMC (S. cerevisiae): 0.025 mM | MIC (S. cerevisiae; Saccharomyces cerevisiae): 25 µM (≈ 7.66 µg/mL) | MMC (S. boulardii): 0.1 mM | MIC (S. boulardii; Saccharomyces cerevisiae): 25 µM (≈ 7.66 µg/mL)

SMILES: CN(C)[C@@H]1C(O)=C(C(N)=O)C(=O)[C@@]2(O)C(O)=C3C(=O)c4c(O)cccc4[C@@](C)(O)[C@H]3C[C@@H]12 [Tetracycline, reference compound]
MMC (B. subtilis (isolate)): 0.005 mM | MIC (B. subtilis (isolate); Bacillus subtilis): 2 µM (≈ 0.889 µg/mL) | MMC (B. subtilis ATCC 6633): 0.035 mM | MIC (B. subtilis ATCC 6633; Bacillus subtilis, ATCC6633): 5 µM (≈ 2.22 µg/mL) | MMC (S. aureus ATCC 25923 [2]): 0.005 mM | MIC (S. aureus ATCC 25923 [2]; Staphylococcus aureus, ATCC25923): < 1 µM | MMC (S. aureus (isolate)): <0.001 mM | MIC (S. aureus (isolate); Staphylococcus aureus): < 1 µM | MMC (L. plantarum 299V): 0.001 mM | MIC (L. plantarum 299V; Lactiplantibacillus plantarum): < 1 µM | MMC (K. pneumoniae): 0.07 mM | MIC (K. pneumoniae; Klebsiella pneumoniae): 9 µM (≈ 4 µg/mL) | MMC (P. mirabilis ATCC 12453 [3]): 0.07 mM | MIC (P. mirabilis ATCC 12453 [3]; Proteus mirabilis, ATCC12453): 35 µM (≈ 15.6 µg/mL) | MMC (P. aeruginosa ATCC 27853 [4]): 0.14 mM | MIC (P. aeruginosa ATCC 27853 [4]; Pseudomonas aeruginosa, ATCC27853): 20 µM (≈ 8.89 µg/mL) | MMC (E. coli): 0.01 mM | MIC (E. coli; Escherichia coli): 5 µM (≈ 2.22 µg/mL) | MMC (S. enterica): 0.01 mM | BIC90 (S. aureus ATCC 25923 [5]; S. aureus ATCC 25923, 48 h): >2.25 mM | IC50 (S. aureus ATCC 25923 [5]; Staphylococcus aureus, ATCC25923, S. aureus ATCC 25923, 48 h, read-out: BIC50): 560 µM | BIC90 (P. mirabilis ATCC 12453 [6]; P. mirabilis ATCC 12453, 48 h): >2.25 mM | IC50 (P. mirabilis ATCC 12453 [6]; Proteus mirabilis, ATCC12453, P. mirabilis ATCC 12453, 48 h, read-out: BIC50): 1310 µM | BIC90 (P. aeruginosa ATCC 27853 [7]; P. aeruginosa ATCC 27853, 48 h): >2.25 mM | IC50 (P. aeruginosa ATCC 27853 [7]; Pseudomonas aeruginosa, ATCC27853, P. aeruginosa ATCC 27853, 48 h, read-out: BIC50): > 2250 µM

More lines, now with the values ahead:

inhibition at 25 µM [1]: 21.6 ± 1.4% | inhibition at 40 µM [1]: 33.9 ± 0.8% | inhibition at 50 µM [1]: 37.8 ± 1% | inhibition at 75 µM [1]: 57.5 ± 1.1% | inhibition at 100 µM [1]: 73.5 ± 0.6% | IC50 [1]: 65.4 ± 0.6 µM
SMILES: NNC(=O)c1ccc(O)c(O)c1O [H-1, 2,3,4-trihydroxybenzohydrazide]

inhibition at 25 µM [1]: 32 ± 0.1% | inhibition at 40 µM [1]: 44.4 ± 1.7% | inhibition at 50 µM [1]: 56 ± 1.1% | inhibition at 75 µM [1]: 73.4 ± 0.3% | inhibition at 100 µM [1]: 91.9 ± 0.2% | IC50 [1]: 46 ± 0.9 µM
SMILES: NNC(=O)c1cc(O)c(O)c(O)c1 [H-2, 3,4,5-trihydroxybenzohydrazide]
